ChEMBL document CHEMBL1148928, “Hyrtiosenolides A and B, two new sesquiterpene gamma-methoxybutenolides and a new sterol from a Red Sea sponge Hyrtios species” (2004)
Activity calls are given as the source filed them. No cut-off for these calls is given here.

How the values were obtained:
Escherichia coli [1] = experiment: Antibacterial activity against Escherichia coli at 100 ug/disk; assay type: functional
Escherichia coli [2] = experiment: Antibacterial activity against Escherichia coli at 50 ug/disk; assay type: functional

Structure (SMILES)	Activity (Escherichia coli [1])	Activity (Escherichia coli [2])	zone of inhibition at 100 µg/disc (Escherichia coli [1]; read-out: IZ) [mm]	zone of inhibition at 50 µg/disc (Escherichia coli [2]; read-out: IZ) [mm]
C=C1[C@@]2(C)CCC3=CC(=O)O[C@]3(OC)[C@H](C2)C[C@@]1(C)O	inactive	inactive		
C=C1C[C@H]2C[C@](C)(CCC3=CC(=O)O[C@@]32OC)[C@]1(C)O [HYRTIOSENOLIDE A]			7	7
